# Measurements: US20240226107A1, “UBIQUITIN-SPECIFIC PROTEASE 1 (USP1) INHIBITOR” (SIMCERE ZAIMING PHARMACEUTICAL CO., LTD., priority 2021, published 2024)
# Target: USP1 (Recombinant Human His6-USP1/His6-UAF1 Complex Protein) (Homo sapiens (Human), UniProt O94782)
# Test: In vitro activity assay for USP1 (Ub-CHOP2-Reporter deubiquitination assay)
# Assay type: biochemical
# Conditions: 0.5 h incubation at room temperature, read-out: In vitro inhibitory activity of USP1 IC50
# Experimental: The assay kit (Ub-CHOP2-Reporter Deubiquitination Assay Kit) was purchased from Lifesensors, with Cat. No. of PR1101. The assay kit was subpackaged and stored at −80° C.
# Each compound to be tested was dissolved with DMSO to 10 mM. The compound and pure DMSO (with a total volume of 50 nL) were loaded to each well of the 384-well plate by using an ECHO instrument to obtain gradient-diluted sample concentrations at different ratios. The enzyme was diluted with a freshly prepared reaction solution (20 mM Tris-HCl (pH 8.0), 2 mM CaCl2, 2 mM β-mercaptoethanol, 0.05% CHAPS, and ddH2O). To each well, 5 μL of diluted enzyme reaction solution was added, then the plate was centrifuged and oscillated to mix the enzyme and the compound, and the mixture was centrifuged again and placed on ice. The kit reporter system and the substrate were diluted with the reaction solution, then 5 μL of diluted liquid was added to each well, and mixed by centrifugation. The mixture was incubated at room temperature for 0.5 h. […] The inhibitory activity (IC50 values) of the compound on enzyme activity was calculated by using a four-parameter Logistic Model. […] A, B, C, and D are four parameters.
# Chain of USP1 (Recombinant Human His6-USP1/His6-UAF1 Complex Protein) (O94782 whole entry): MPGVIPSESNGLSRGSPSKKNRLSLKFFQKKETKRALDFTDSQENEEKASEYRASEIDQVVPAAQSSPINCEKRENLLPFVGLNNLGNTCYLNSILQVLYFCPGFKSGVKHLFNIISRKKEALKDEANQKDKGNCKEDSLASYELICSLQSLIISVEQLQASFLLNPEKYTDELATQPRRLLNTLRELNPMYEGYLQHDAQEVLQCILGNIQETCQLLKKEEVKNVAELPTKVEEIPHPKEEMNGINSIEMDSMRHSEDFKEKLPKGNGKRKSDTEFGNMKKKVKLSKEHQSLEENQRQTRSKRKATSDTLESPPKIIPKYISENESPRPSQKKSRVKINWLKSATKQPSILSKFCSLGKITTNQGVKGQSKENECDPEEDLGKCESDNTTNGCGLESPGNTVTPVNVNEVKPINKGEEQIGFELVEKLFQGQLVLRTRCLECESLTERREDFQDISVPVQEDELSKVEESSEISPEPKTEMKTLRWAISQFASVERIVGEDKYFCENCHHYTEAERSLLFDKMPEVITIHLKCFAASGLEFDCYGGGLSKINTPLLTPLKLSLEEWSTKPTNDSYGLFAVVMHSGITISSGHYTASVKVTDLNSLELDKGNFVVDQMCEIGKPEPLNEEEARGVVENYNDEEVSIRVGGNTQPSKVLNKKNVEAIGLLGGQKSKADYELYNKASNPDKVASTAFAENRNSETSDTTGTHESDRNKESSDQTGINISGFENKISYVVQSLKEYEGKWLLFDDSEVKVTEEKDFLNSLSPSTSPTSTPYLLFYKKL
# Chain of USP1 (Recombinant Human His6-USP1/His6-UAF1 Complex Protein) (Q8TAF3 whole entry partner): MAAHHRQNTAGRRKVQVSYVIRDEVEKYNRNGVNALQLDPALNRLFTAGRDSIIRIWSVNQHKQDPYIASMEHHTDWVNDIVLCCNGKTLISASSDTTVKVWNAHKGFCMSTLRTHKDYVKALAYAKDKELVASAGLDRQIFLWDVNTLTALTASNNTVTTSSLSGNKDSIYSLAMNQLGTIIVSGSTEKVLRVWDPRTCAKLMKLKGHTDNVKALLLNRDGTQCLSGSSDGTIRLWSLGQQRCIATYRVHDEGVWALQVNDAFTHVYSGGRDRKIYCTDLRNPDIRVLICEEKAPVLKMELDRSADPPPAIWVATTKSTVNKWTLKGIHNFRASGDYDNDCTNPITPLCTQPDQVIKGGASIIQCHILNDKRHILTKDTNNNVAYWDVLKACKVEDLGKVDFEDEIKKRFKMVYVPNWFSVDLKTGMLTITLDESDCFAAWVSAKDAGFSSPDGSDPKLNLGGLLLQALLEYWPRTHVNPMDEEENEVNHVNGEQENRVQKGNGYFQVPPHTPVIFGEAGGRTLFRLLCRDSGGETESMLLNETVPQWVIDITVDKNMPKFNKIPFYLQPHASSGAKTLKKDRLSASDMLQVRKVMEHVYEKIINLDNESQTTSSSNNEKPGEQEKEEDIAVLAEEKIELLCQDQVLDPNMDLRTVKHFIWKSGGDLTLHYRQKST
row,SMILES,IC50 [nM]
1,"CC(C)c1ncccc1-c1ncc2c(n1)N(Cc1ccc(-c3nc(C(F)(F)F)cn3C)cc1)CCO2 [Compound 1, 2-(2-isopropylpyridin-3-yl)-8-(4-(1-methyl-4-(trifluoromethyl)-1H-imidazol-2-yl)benzyl)-7,8-dihydro-6H-pyrimido[5,4-b][1,4]oxazine]",18
2,"COc1ncnc(C2CC2)c1-c1cc2c(cn1)OCCN2Cc1ccc(-c2nc(C(F)(F)F)cn2C)cc1 [Compound 3, 7-(4-cyclopropyl-6-methoxypyrimidin-5-yl)-1-(4-(1-methyl-4-(trifluoromethyl)-1H-imidazol-2-yl)benzyl)-2,3-dihydro-1H-pyrido[3,4-b][1,4]oxazine]",21.3
3,"CC(C)c1ncccc1-c1ncc2c(n1)N(Cc1ccc(-c3nc(C(F)(F)F)cn3C)cc1)CC(=O)N2 [Compound 4, 2-(2-isopropylpyridin-3-yl)-8-(4-(1-methyl-4-(trifluoromethyl)-1H-imidazol-2-yl)benzyl)-7,8-dihydropteridin-6(5H)-one]",43.3
4,"COc1ncnc(C2CC2)c1-c1ncc2c(n1)N(Cc1ccc3c(c1)CCCn1cc(C(F)(F)F)nc1-3)CC(=O)N2C(C)C [Compound 47, 2-(4-cyclopropyl-6-methoxypyrimidin-5-yl)-5-isopropyl-8-((2-(trifluoromethyl)-6,7-dihydro-5H-benzo[c]imidazo[1,2-a]azepin-9-yl)methyl)-7,8-dihydropteridin-6(5H)-one]",45.9
5,"COc1ncnc(C2CC2)c1-c1ncc2c(n1)N(Cc1ccc3c(c1)CCCn1cc(C(F)(F)F)nc1-3)CC(=O)N2C1CC1 [Compound 48, 5-cyclopropyl-2-(4-cyclopropyl-6-methoxypyrimidin-5-yl)-8-((2-(trifluoromethyl)-6,7-dihydro-5H-benzo[c]imidazo[1,2-a]azepin-9-yl)methyl)-7,8-dihydropteridin-6-(5H)-one]",26.1
6,"COc1ncnc(C2CC2)c1-c1ncc2c(n1)N(Cc1ccc(-c3nc(C(F)(F)F)cn3C)c(F)c1)C(=O)OC2(C)C [Compound 49, 7-(4-cyclopropyl-6-methoxypyrimidin-5-yl)-4,4-dimethyl-1-(3-fluoro-4-(1-methyl-4-(trifluoromethyl)-1H-imidazol-2-yl)benzyl)-1,4-dihydro-2H-pyrimido[4,5-d][1,3]oxazin-2-one]",33.2
7,"COc1ncnc(C2CC2)c1-c1ncc2c(n1)N(Cc1ccc(-c3nc(C(F)(F)F)cn3C)c(F)c1)C(=O)OC21CC1 [Compound 51, 7′-(4-cyclopropyl-6-methoxypyrimidin-5-yl)-1′-(3-fluoro-4-(1-methyl-4-(trifluoromethyl)-1H-imidazol-2-yl)benzyl)spiro[cyclopropane-1,4′-pyrimido[4,5-d][1,3]oxazine]-2′(1′H)-one]",13.8
8,"COc1ncnc(C2CC2)c1-c1ncc2c(n1)N(Cc1ccc(-n3nc(C(F)(F)F)cc3C)cc1)C(=O)OC21CC1 [Compound 53, 7′-(4-cyclopropyl-6-methoxypyrimidin-5-yl)-1′-(4-(5-methyl-3-(trifluoromethyl)-1H-pyrazol-1-yl)benzyl)spiro[cyclopropane-1,4′-pyrimido[4,5-d][1,3]oxazine]-2′(1′H)-one]",8.9
9,"COc1ncnc(C2CC2)c1-c1ncc2c(n1)N(Cc1ccc(-n3nc(C(F)(F)F)cc3C)cc1)C(=O)OC21COC1 [Compound 54, 7′-(4-cyclopropyl-6-methoxypyrimidin-5-yl)-1′-(4-(5-methyl-3-(trifluoromethyl)-1H-pyrazol-1-yl)benzyl)spiro[oxetane-3,4′-pyrimido[4,5-d][1,3]oxazine]-2′(1′H)-one]",23.2
10,"COc1ncnc(C2CC2)c1-c1ncc2c(n1)N(Cc1ccc(-n3nc(C(F)(F)F)cc3C)cc1)C(=O)OC21CCC1 [Compound 55, 7′-(4-cyclopropyl-6-methoxypyrimidin-5-yl)-1′-(4-(5-methyl-3-(trifluoromethyl)-1H-pyrazol-1-yl)benzyl)spiro[cyclobutane-1,4′-pyrimido[4,5-d][1,3]oxazin]-2′(1′H)-one]",8.7
11,"C#CC1(C)OC(=O)N(Cc2ccc(-c3nc(C(F)(F)F)cn3C)c(F)c2)c2nc(-c3c(OC)ncnc3C3CC3)ncc21 (stereo not shown) [Compound 59, 7-(4-cyclopropyl-6-methoxypyrimidin-5-yl)-4-ethynyl-1-(3-fluoro-4-(1-methyl-4-(trifluoromethyl)-1H-imidazol-2-yl)benzyl)-4-methyl-1,4-dihydro-2H-pyrimido[4,5-d][1,3]oxazin-2-one]",13.5
12,COc1ncnc(C2CC2)c1-c1ncc2c(n1)N(Cc1ccc(-c3nc(C(F)(F)F)cn3C)c(C(F)(F)F)c1)CCO2 [Compound 64],22.7
13,"COc1ncnc(C2CC2)c1-c1ncc2c(n1)N(Cc1ccc(-n3nc(C(F)(F)F)cc3C)cc1)CC(=O)N2C1CC1 [Compound 72, 2-(4-cyclopropyl-6-methoxypyrimidin-5-yl)-8-(4-(5-methyl-3-(trifluoromethyl)-1H-pyrazol-1-yl)benzyl)-5-cyclopropyl-7,8-dihydropteridin-6(5H)-one]",38
14,"Cc1cc(C(F)(F)F)nn1-c1ccc(CN2C(=O)OC(C)(C)c3cnc(-c4c(OC(F)F)ncnc4C4CC4)nc32)cc1 [Compound 75, 7-(4-cyclopropyl-6-difluoromethoxypyrimidin-5-yl)-4,4-dimethyl-1-(4-(5-methyl-3-(trifluoromethyl)-1H-pyrazol-1-yl)benzyl)-1,4-dihydro-2H-pyrimido[4,5-d][1,3]oxazin-2-one]",14.8
15,"COc1ncnc(C2CC2)c1-c1ncc2c(n1)N(Cc1ccc(-c3nc(C(F)(F)F)cn3C)c(F)c1)N(C)C(=O)N2C [Compound 84, 7-(4-cyclopropyl-6-methoxypyrimidin-5-yl)-1-(3-fluoro-4-(1-methyl-4-(trifluoromethyl)-1H-imidazol-2-yl)benzyl)-2,4-dimethyl-1,4-dihydropyrimido[5,4-e][1,2,4]triazin-3(2H)-one]",69.7

# System: MDA-MB-436 cells;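 note: MDA-MB-436 proliferation over 7 days with compound, viability read as ATP luminescence (CellTiter-Glo), inhibition relative to DMSO-only wells, day 0 signal as background, GI50 from four-parameter fit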
# Test: not given
# Conditions: not given
row,SMILES,GI50 [nM]
1,"CC(C)c1ncccc1-c1ncc2c(n1)N(Cc1ccc(-c3nc(C(F)(F)F)cn3C)cc1)CCO2 [Compound 1, 2-(2-isopropylpyridin-3-yl)-8-(4-(1-methyl-4-(trifluoromethyl)-1H-imidazol-2-yl)benzyl)-7,8-dihydro-6H-pyrimido[5,4-b][1,4]oxazine]",22.9
2,"COc1ncnc(C2CC2)c1-c1ncc2c(n1)N(Cc1ccc(-c3nc(C(F)(F)F)cn3C)cc1)CCO2 [Compound 2, 2-(4-cyclopropyl-6-methoxypyrimidin-5-yl)-8-(4-(1-methyl-4-(trifluoromethyl)-1H-imidazol-2-yl)benzyl)-7,8-dihydro-6H-pyrimido[5,4-b][1,4]oxazine]",20.9
3,"COc1ncnc(C2CC2)c1-c1cc2c(cn1)OCCN2Cc1ccc(-c2nc(C(F)(F)F)cn2C)cc1 [Compound 3, 7-(4-cyclopropyl-6-methoxypyrimidin-5-yl)-1-(4-(1-methyl-4-(trifluoromethyl)-1H-imidazol-2-yl)benzyl)-2,3-dihydro-1H-pyrido[3,4-b][1,4]oxazine]",47.3
4,"COc1ncnc(C2CC2)c1-c1ncc2c(n1)N(Cc1ccc(-c3nc(C(F)(F)F)cn3C)cc1)C(=O)CO2 [Compound 6, 2-(4-cyclopropyl-6-methoxypyrimidin-5-yl)-8-(4-(1-methyl-4-(trifluoromethyl)-1H-imidazol-2-yl)benzyl)-6H-pyrimido [5,4-b][1,4]oxazin-7(8H)-one]",420
5,"COc1ncnc(C2CC2)c1-c1ncc2c(n1)N(Cc1ccc(-c3nc(C(F)(F)F)cn3C)cc1F)CCO2 [Compound 9, 2-(4-cyclopropyl-6-methoxypyrimidin-5-yl)-8-(2-fluoro-4-(1-methyl-4-(trifluoromethyl)-1H-imidazol-2-yl)benzyl)-7,8-dihydro-6H-pyrimido[5,4-b][1,4]oxazine]",50.4
6,"COc1ncnc(C2CC2)c1-c1ncc2c(n1)N(Cc1ccc(-c3nc(C(F)(F)F)cn3C)c(F)c1)CCO2 [Compound 32, 2-(4-cyclopropyl-6-methoxypyrimidin-5-yl)-8-(3-fluoro-4-(1-methyl-4-(trifluoromethyl)-1H-imidazol-2-yl)benzyl)-7,8-dihydro-6H-pyrimido[5,4-b][1,4]oxazine]",11.4
7,"Cc1cnc(-c2ccccc2C(C)C)nc1NCc1ccc(-n2ccnn2)cc1 [ML323, reference compound]",1820
